Source: patent US8936916B2, “Polypeptides for microbial detection” (3M Innovative Properties Company, priority 2008, dated 2015)
Ends that are not written are not given here. * marks the point of attachment. Myristoyl = CCCCCCCCCCCCCC(=O)*

Assay: Permeabilization of DPPC liposomes containing glucose oxidase by phosphorylated dermatoxin (absorbance at 538 nm)
Type: biochemical
Protocol: DPPC liposomes containing 5 mg/mL glucose oxidase were prepared as described in Example 2. Glucose oxidase activity was measured in a coupled enzyme reaction with horseradish peroxidase as described in Example 2. The various solutions were quickly added to each of the wells of a microplate using a multichannel pipette and the reactions were started (at T=0 hours) with the addition to the wells of a solution containing glucose and 4-AAP.
The ability of the phosphorylated dermatoxin to open liposomes in the presence of phosphatase was tested by preparing a developing solution as described in Example 2. One hundred-fifty microliters of the developing solution was placed in each well of a 96-well microplate. To each column in the plate was added 20 μL of TES buffer containing one of the following concentrations of unpurified dermatoxin: 3.3 mg/mL, 3.3×10^−1 mg/mL, 3.3×10^−2 mg/mL, 3.3×10^−3 mg/mL, 3.3×10^−4 mg/mL, 3.3×10^−5 mg/mL, 3.3×10^−6 mg/mL, or 3.3×10^−7 mg/mL. Negative control wells contained TES buffer with no dermatoxin. Positive control wells buffer contained TES buffer with Triton X-100. Ten-microliter aliquots of the following concentrations of DPPC liposomes (containing 5 mg/mL glucose oxidase) were added to wells in duplicate rows: 0.1 mg lipid/mL, 0.02 mg lipid/mL, 0.004 mg lipid/mL, or plain buffer. To one of the duplicate rows was added 20 μL of 2.5 mg/mL alkaline phosphatase in TES. The other duplicate row received 20 μL of TES buffer. Thus the final dermatoxin concentration in the well varied from […], and the final lipid concentration in the well ranged from 0.005 mg lipid/mL to 2.0×10^−4 mg lipid/mL.
The absorbance was recorded at 538 nm on a SpectraMax M5 plate reader (Molecular Devices, Sunnyvale, Calif.) after two hours incubation at room temperature, and also after overnight incubation (approximately 18 hours). Since the absorbance of several wells was saturated, the overnight samples were diluted 1:10 with 50 mmol TES and the absorbance of the diluted samples was measured.

SLGSFLKGVGTTLASVGKVVSDQFGKLLQAGQ (Myristoyl-SLGSFLKGVGTTLASVGKVVSDQFGKLLQAGQ; also: phosphorylated) [phosphorylated dermatoxin, fully phosphorylated dermatoxin, unpurified crude preparation]
Absorbance at 538 nm (cytolytic peptide activity) (18 hrs (d), 1:10-diluted sample, lipid conc. 0.004, dermatoxin mass 3.3 × 10^−9 mg, without phosphatase): 0.054 absorbance units | Absorbance at 538 nm (cytolytic peptide activity) (18 hrs (d), 1:10-diluted sample, lipid conc. 0.02, dermatoxin mass 3.3 × 10^−5 mg, with phosphatase): 0.262 absorbance units | Absorbance at 538 nm (cytolytic peptide activity) (18 hrs (d), 1:10-diluted sample, lipid conc. 0.02, dermatoxin mass 3.3 × 10^−5 mg, without phosphatase): 0.247 absorbance units | Absorbance at 538 nm (cytolytic peptide activity) (18 hrs (d), 1:10-diluted sample, lipid conc. 0.02, dermatoxin mass 3.3 × 10^−6 mg, with phosphatase): 0.231 absorbance units | Absorbance at 538 nm (cytolytic peptide activity) (18 hrs (d), 1:10-diluted sample, lipid conc. 0.02, dermatoxin mass 3.3 × 10^−6 mg, without phosphatase): 0.145 absorbance units | Absorbance at 538 nm (cytolytic peptide activity) (18 hrs (d), 1:10-diluted sample, lipid conc. 0.02, dermatoxin mass 3.3 × 10^−7 mg, with phosphatase): 0.084 absorbance units | Absorbance at 538 nm (cytolytic peptide activity) (18 hrs (d), 1:10-diluted sample, lipid conc. 0.02, dermatoxin mass 3.3 × 10^−7 mg, without phosphatase): 0.072 absorbance units | Absorbance at 538 nm (cytolytic peptide activity) (18 hrs (d), 1:10-diluted sample, lipid conc. 0.02, dermatoxin mass 3.3 × 10^−8 mg, with phosphatase): 0.075 absorbance units | Absorbance at 538 nm (cytolytic peptide activity) (18 hrs (d), 1:10-diluted sample, lipid conc. 0.02, dermatoxin mass 3.3 × 10^−8 mg, without phosphatase): 0.054 absorbance units | Absorbance at 538 nm (cytolytic peptide activity) (18 hrs (d), 1:10-diluted sample, lipid conc. 0.02, dermatoxin mass 3.3 × 10^−9 mg, with phosphatase): 0.072 absorbance units | Absorbance at 538 nm (cytolytic peptide activity) (18 hrs (d), 1:10-diluted sample, lipid conc. 0.02, dermatoxin mass 3.3 × 10^−9 mg, without phosphatase): 0.054 absorbance units | Absorbance at 538 nm (cytolytic peptide activity) (18 hrs (d), 1:10-diluted sample, lipid conc. 0.1, dermatoxin mass 3.3 × 10^−5 mg, with phosphatase): 1.045 absorbance units | Absorbance at 538 nm (cytolytic peptide activity) (18 hrs (d), 1:10-diluted sample, lipid conc. 0.1, dermatoxin mass 3.3 × 10^−5 mg, without phosphatase): 0.846 absorbance units | Absorbance at 538 nm (cytolytic peptide activity) (18 hrs (d), 1:10-diluted sample, lipid conc. 0.1, dermatoxin mass 3.3 × 10^−6 mg, with phosphatase): 0.785 absorbance units | Absorbance at 538 nm (cytolytic peptide activity) (18 hrs (d), 1:10-diluted sample, lipid conc. 0.1, dermatoxin mass 3.3 × 10^−6 mg, without phosphatase): 0.413 absorbance units | Absorbance at 538 nm (cytolytic peptide activity) (18 hrs (d), 1:10-diluted sample, lipid conc. 0.1, dermatoxin mass 3.3 × 10^−7 mg, with phosphatase): 0.095 absorbance units | Absorbance at 538 nm (cytolytic peptide activity) (18 hrs (d), 1:10-diluted sample, lipid conc. 0.1, dermatoxin mass 3.3 × 10^−7 mg, without phosphatase): 0.145 absorbance units | Absorbance at 538 nm (cytolytic peptide activity) (18 hrs (d), 1:10-diluted sample, lipid conc. 0.1, dermatoxin mass 3.3 × 10^−8 mg, with phosphatase): 0.076 absorbance units | Absorbance at 538 nm (cytolytic peptide activity) (18 hrs (d), 1:10-diluted sample, lipid conc. 0.1, dermatoxin mass 3.3 × 10^−8 mg, without phosphatase): 0.060 absorbance units | Absorbance at 538 nm (cytolytic peptide activity) (18 hrs (d), 1:10-diluted sample, lipid conc. 0.1, dermatoxin mass 3.3 × 10^−9 mg, with phosphatase): 0.075 absorbance units | Absorbance at 538 nm (cytolytic peptide activity) (18 hrs (d), 1:10-diluted sample, lipid conc. 0.1, dermatoxin mass 3.3 × 10^−9 mg, without phosphatase): 0.058 absorbance units | Absorbance at 538 nm (cytolytic peptide activity) (18 hrs, lipid conc. 0, dermatoxin mass 3.3 × 10^−5 mg, with phosphatase): 0.153 absorbance units | Absorbance at 538 nm (cytolytic peptide activity) (18 hrs, lipid conc. 0, dermatoxin mass 3.3 × 10^−5 mg, without phosphatase): 0.147 absorbance units | Absorbance at 538 nm (cytolytic peptide activity) (18 hrs, lipid conc. 0, dermatoxin mass 3.3 × 10^−6 mg, with phosphatase): 0.149 absorbance units | Absorbance at 538 nm (cytolytic peptide activity) (18 hrs, lipid conc. 0, dermatoxin mass 3.3 × 10^−6 mg, without phosphatase): 0.139 absorbance units | Absorbance at 538 nm (cytolytic peptide activity) (18 hrs, lipid conc. 0, dermatoxin mass 3.3 × 10^−7 mg, with phosphatase): 0.148 absorbance units | Absorbance at 538 nm (cytolytic peptide activity) (18 hrs, lipid conc. 0, dermatoxin mass 3.3 × 10^−7 mg, without phosphatase): 0.132 absorbance units | Absorbance at 538 nm (cytolytic peptide activity) (18 hrs, lipid conc. 0, dermatoxin mass 3.3 × 10^−8 mg, with phosphatase): 0.149 absorbance units | Absorbance at 538 nm (cytolytic peptide activity) (18 hrs, lipid conc. 0, dermatoxin mass 3.3 × 10^−8 mg, without phosphatase): 0.131 absorbance units | Absorbance at 538 nm (cytolytic peptide activity) (18 hrs, lipid conc. 0, dermatoxin mass 3.3 × 10^−9 mg, with phosphatase): 0.150 absorbance units | Absorbance at 538 nm (cytolytic peptide activity) (18 hrs, lipid conc. 0, dermatoxin mass 3.3 × 10^−9 mg, without phosphatase): 0.133 absorbance units | Absorbance at 538 nm (cytolytic peptide activity) (18 hrs, lipid conc. 0.004, dermatoxin mass 3.3 × 10^−5 mg, with phosphatase): 0.494 absorbance units | Absorbance at 538 nm (cytolytic peptide activity) (18 hrs, lipid conc. 0.004, dermatoxin mass 3.3 × 10^−5 mg, without phosphatase): 0.499 absorbance units | Absorbance at 538 nm (cytolytic peptide activity) (18 hrs, lipid conc. 0.004, dermatoxin mass 3.3 × 10^−6 mg, with phosphatase): 0.494 absorbance units | Absorbance at 538 nm (cytolytic peptide activity) (18 hrs, lipid conc. 0.004, dermatoxin mass 3.3 × 10^−6 mg, without phosphatase): 0.410 absorbance units | Absorbance at 538 nm (cytolytic peptide activity) (18 hrs, lipid conc. 0.004, dermatoxin mass 3.3 × 10^−7 mg, with phosphatase): 0.287 absorbance units | Absorbance at 538 nm (cytolytic peptide activity) (18 hrs, lipid conc. 0.004, dermatoxin mass 3.3 × 10^−7 mg, without phosphatase): 0.169 absorbance units | Absorbance at 538 nm (cytolytic peptide activity) (18 hrs, lipid conc. 0.004, dermatoxin mass 3.3 × 10^−8 mg, with phosphatase): 0.240 absorbance units | Absorbance at 538 nm (cytolytic peptide activity) (18 hrs, lipid conc. 0.004, dermatoxin mass 3.3 × 10^−8 mg, without phosphatase): 0.141 absorbance units | Absorbance at 538 nm (cytolytic peptide activity) (18 hrs, lipid conc. 0.004, dermatoxin mass 3.3 × 10^−9 mg, with phosphatase): 0.243 absorbance units | Absorbance at 538 nm (cytolytic peptide activity) (18 hrs, lipid conc. 0.004, dermatoxin mass 3.3 × 10^−9 mg, without phosphatase): 0.139 absorbance units | Absorbance at 538 nm (cytolytic peptide activity) (18 hrs, lipid conc. 0.02, dermatoxin mass 3.3 × 10^−5 mg, with phosphatase): 2.003 absorbance units | Absorbance at 538 nm (cytolytic peptide activity) (18 hrs, lipid conc. 0.02, dermatoxin mass 3.3 × 10^−5 mg, without phosphatase): 1.833 absorbance units | Absorbance at 538 nm (cytolytic peptide activity) (18 hrs, lipid conc. 0.02, dermatoxin mass 3.3 × 10^−6 mg, with phosphatase): 1.856 absorbance units | Absorbance at 538 nm (cytolytic peptide activity) (18 hrs, lipid conc. 0.02, dermatoxin mass 3.3 × 10^−6 mg, without phosphatase): 1.013 absorbance units | Absorbance at 538 nm (cytolytic peptide activity) (18 hrs, lipid conc. 0.02, dermatoxin mass 3.3 × 10^−7 mg, with phosphatase): 0.469 absorbance units | Absorbance at 538 nm (cytolytic peptide activity) (18 hrs, lipid conc. 0.02, dermatoxin mass 3.3 × 10^−7 mg, without phosphatase): 0.315 absorbance units | Absorbance at 538 nm (cytolytic peptide activity) (18 hrs, lipid conc. 0.02, dermatoxin mass 3.3 × 10^−8 mg, with phosphatase): 0.357 absorbance units | Absorbance at 538 nm (cytolytic peptide activity) (18 hrs, lipid conc. 0.02, dermatoxin mass 3.3 × 10^−8 mg, without phosphatase): 0.149 absorbance units | Absorbance at 538 nm (cytolytic peptide activity) (18 hrs, lipid conc. 0.02, dermatoxin mass 3.3 × 10^−9 mg, with phosphatase): 0.336 absorbance units | Absorbance at 538 nm (cytolytic peptide activity) (18 hrs, lipid conc. 0.02, dermatoxin mass 3.3 × 10^−9 mg, without phosphatase): 0.143 absorbance units | Absorbance at 538 nm (cytolytic peptide activity) (18 hrs, lipid conc. 0.1, dermatoxin mass 3.3 × 10^−5 mg, without phosphatase): 3.720 absorbance units | Absorbance at 538 nm (cytolytic peptide activity) (18 hrs, lipid conc. 0.1, dermatoxin mass 3.3 × 10^−6 mg, without phosphatase): 3.294 absorbance units | Absorbance at 538 nm (cytolytic peptide activity) (18 hrs, lipid conc. 0.1, dermatoxin mass 3.3 × 10^−7 mg, with phosphatase): 0.530 absorbance units | Absorbance at 538 nm (cytolytic peptide activity) (18 hrs, lipid conc. 0.1, dermatoxin mass 3.3 × 10^−7 mg, without phosphatase): 0.974 absorbance units | Absorbance at 538 nm (cytolytic peptide activity) (18 hrs, lipid conc. 0.1, dermatoxin mass 3.3 × 10^−8 mg, with phosphatase): 0.349 absorbance units | Absorbance at 538 nm (cytolytic peptide activity) (18 hrs, lipid conc. 0.1, dermatoxin mass 3.3 × 10^−8 mg, without phosphatase): 0.200 absorbance units | Absorbance at 538 nm (cytolytic peptide activity) (18 hrs, lipid conc. 0.1, dermatoxin mass 3.3 × 10^−9 mg, with phosphatase): 0.358 absorbance units | Absorbance at 538 nm (cytolytic peptide activity) (18 hrs, lipid conc. 0.1, dermatoxin mass 3.3 × 10^−9 mg, without phosphatase): 0.177 absorbance units | Permeabilization of the liposomes in the presence versus absence of phosphatase (all wells except the highest concentration of the crude preparation): more permeabilization
